Measured values as given in patent US20090124555A1, “USE OF HISTOGRANIN AND HISTOGRANIN-LIKE COMPOUNDS AS INHIBITORS OF P2X7 RECEPTOR FUNCTION AND AS ANTI-ARTHRITIC AGENTS” (priority 2005, published 2009).
pIC50: −log10 of the molar value.

Columns and labels:
P2X7 receptor [1] = biological target: T1, P2X7 receptor (Rattus norvegicus, UniProt Q64663); assay: ATP-induced membrane permeabilization and pore formation (ethidium bromide uptake) in alveolar macrophages; format: cell-based; conditions: for ATP-mediated permeabilization to ethidium bromide / inhibition of ATP-induced pore formation (ethidium bromide uptake): ATP 5 mM; for ATP-mediated permeabilization to ethidium bromide / BzATP-mediated permeabilization to ethidium bromide: pre-treatment with oATP 0.1 mM 2 h or BBG 5×10^−9M 5 min; for BzATP-mediated permeabilization to ethidium bromide / inhibition of BzATP-induced pore formation: BzATP 0.5 mM; for inhibition of ATP-induced pore formation (ethidium bromide uptake): 5 min, compound 10^−9M; for inhibition of ATP-induced pore formation (ethidium bromide uptake) / inhibition of BzATP-induced pore formation: rat alveolar macrophages, FIG. 1A
T1 construct: Alveolar macrophages (AM) were recovered from normal rats by bronchoalveolar lavage; endogenous in cells; host or cells: primary alveolar macrophages from male Wistar rats (bronchoalveolar lavage)
T1 sequence (Q64663 1-595): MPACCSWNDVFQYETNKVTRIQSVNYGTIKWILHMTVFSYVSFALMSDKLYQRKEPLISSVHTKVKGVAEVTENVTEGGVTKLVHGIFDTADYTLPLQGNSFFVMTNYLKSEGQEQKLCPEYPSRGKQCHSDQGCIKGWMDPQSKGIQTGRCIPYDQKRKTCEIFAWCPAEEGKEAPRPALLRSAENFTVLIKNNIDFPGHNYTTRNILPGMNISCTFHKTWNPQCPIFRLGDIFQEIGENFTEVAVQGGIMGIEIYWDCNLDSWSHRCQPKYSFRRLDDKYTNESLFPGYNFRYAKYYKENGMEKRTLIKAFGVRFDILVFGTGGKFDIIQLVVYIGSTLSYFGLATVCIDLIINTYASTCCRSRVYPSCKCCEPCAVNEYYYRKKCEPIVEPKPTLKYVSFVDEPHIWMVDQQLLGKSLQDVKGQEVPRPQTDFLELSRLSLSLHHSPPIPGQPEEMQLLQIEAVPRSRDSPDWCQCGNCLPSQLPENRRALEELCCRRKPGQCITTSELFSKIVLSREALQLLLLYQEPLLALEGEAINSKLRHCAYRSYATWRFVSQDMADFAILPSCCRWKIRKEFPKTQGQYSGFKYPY
Procedure: Alveolar macrophages (AM) were recovered from normal rats by bronchoalveolar lavage (BAL) as described previously (Lemaire (1991) Am. J. Pathol. 138:487-495). The lungs were lavaged with 7 ml-aliquots of sterile phosphate buffered saline (pH 7.4; Wisent, St. Bruno, QC), and BAL cells were obtained by centrifugation at 200×g at 4° C. for 5 minutes. The cells were resuspended in RPMI 1640 medium (Wisent, St-Bruno, QC) supplemented with 0.5% dialysed fetal bovine serum (Wisent. St-Bruno, QC), 0.005% gentamycin (Schering Canada Inc. Pointe Claire. QC) and 0.8% HEPES (Sigma Chemical Co., St-Louis, MO) which will henceforth be referred to as complete culture medium (CM).
Freshly isolated AM (1×10^5) were incubated in 200 μl complete medium in 96 wells tissue culture plates for 24 h. Following centrifugation, medium was replaced with saline solution containing 125 mM NaCl, 5 mM KCL, 1 mM MgSO4, 1 mM Na2HPO4, 5.5 mM glucose, 5 mM NaHCO3, 1 mM CaCl2 and 20 mM Hepes, pH 7.6. Ethidium bromide was added to a final concentration of 20 μM and AM were stimulated with ATP (5 mM, Sigma), 3′-O-(4-benzoylbenzoyl ATP (BzATP) (0.5 mM, Molecular Probes) or uridine 5′-triphosphate (UTP) (Sigma), at 37° C. for 5 minutes. In some experiments, cells were pre-treated with oxidized ATP (oATP, 0.1 mM, Sigma) for 2 h or Brilliant Blue G (BBG, 5×10^−9M, Sigma) for 5 minutes, or HN compounds for 5 minutes before ATP stimulation. After ATP stimulation, the plate was centrifuged (200×g, 1 minute), culture supernatants were replaced with fresh buffer and the fluorescence was analyzed using a Zeiss Axiovert S1100 TV inverted microscope equipped with a rhodamine filter and a 32× objective. Images were captured and analysed with the Northern Eclipse image analysis software. Data are expressed as percentage of cells that become permeabilized to ethidium bromide.

P2X7 receptor [2] = biological target: T1, P2X7 receptor; assay: ATP-induced extracellular release of IL-1.beta and IL-1.alpha from macrophages in vitro (ELISA); format: cell-based
Procedure: Alveolar macrophages (1×10^6 cells/ml) were incubated in complete medium in 96 wells tissue culture plates overnight at 37° C. in 5% CO2. The medium was changed for fresh medium and cells were incubated with Lipopolysaccharide (LPS. 1 μg/ml) (Sigma) for 3 h followed by ATP (5 mM) or 3′-0-(4-benzoylbenzoyl ATP (BZATP) (0.5 mM. Molecular Robes) for 1 h in the presence and absence of HN compounds (10^−9M and 10^−8M) or Brilliant Blue G (BBG, 5×10^−9 M, Sigma). In some experiments, cells were pre-treated with oxidized ATP (oATP, 100 μM, Sigma) for 2 h before LPS and ATP or BzATP stimulation. In other experiments, cells were stimulated with LPS (1 μg/ml) for 3 h and subsequently with Nigericin (20 μM) for 30 min in the presence and absence of HN compounds (10^−9, 10^−8M). Controls were incubated with LPS only. After incubation, cell culture media were collected, centrifuged in a microfuge (Eppendorf) and the cell-free supernatants were collected and stored at −80° C. for cytokine measurement. Levels of immunoreactive IL-1.beta and IL-1.alpha were assayed using ELISA (R&D Systems, Minneapolis, Minn. and Biosource (Medicorp), Camarillo, Calif. respectively) performed according to the manufacturer's protocol.

P2X7 receptor [3] = biological target: T2, P2X7 receptor (Mus musculus, UniProt Q9Z1M0); assay: ATP-induced extracellular release of IL-1.beta, IL-1.alpha and IL-6 in vivo (peritoneal lavage of LPS-primed mice); conditions: 0.1 mg and 0.3 mg i.p. 15 min before ATP, FIG. 6B
T2 construct: from tissue; host or cells: living mice; peritoneal cavity (lavage fluid analysed)
T2 sequence (Q9Z1M0 1-595): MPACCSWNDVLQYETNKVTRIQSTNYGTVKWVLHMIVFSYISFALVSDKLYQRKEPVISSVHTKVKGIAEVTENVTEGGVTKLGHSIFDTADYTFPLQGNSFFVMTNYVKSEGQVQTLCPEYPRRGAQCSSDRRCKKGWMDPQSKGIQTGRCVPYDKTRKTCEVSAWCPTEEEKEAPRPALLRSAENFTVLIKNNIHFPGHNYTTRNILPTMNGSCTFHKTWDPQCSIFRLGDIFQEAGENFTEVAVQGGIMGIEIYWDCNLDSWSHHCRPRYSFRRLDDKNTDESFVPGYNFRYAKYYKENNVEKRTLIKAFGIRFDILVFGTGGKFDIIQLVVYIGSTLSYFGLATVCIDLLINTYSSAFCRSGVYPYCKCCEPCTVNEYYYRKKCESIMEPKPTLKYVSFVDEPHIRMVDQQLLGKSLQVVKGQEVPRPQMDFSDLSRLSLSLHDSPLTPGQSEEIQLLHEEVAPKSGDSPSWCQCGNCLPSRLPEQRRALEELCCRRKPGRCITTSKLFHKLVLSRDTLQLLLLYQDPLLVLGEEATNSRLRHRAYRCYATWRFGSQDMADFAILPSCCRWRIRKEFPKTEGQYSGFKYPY
Procedure: Groups of mice were injected intraperitoneally (i.p.) with 50 μg of LPS. Two hours after this LPS injection, mice were injected i.p. with either PBS or ATP (5 mM, adjusted to pH 7), or with HN compounds (0.1 mg and 0.3 mg) 15 minutes before ATP injection. Mice were sacrificed 30 minutes (IL-1.beta and IL-1.alpha) or 120 minutes (IL-6) after the ATP or PBS injection and peritoneal cavities were lavaged each with 3 ml PBS. Samples of peritoneal lavages were centrifuged, cell-free supernatants were collected and tested for the presence of IL-1.beta, IL-1.alpha and IL-6 using ELISA (R&D Systems, Minneapolis, Minn., and Biosource, Camarillo, Calif., respectively).

P2X7 receptor [4] = biological target: T1, P2X7 receptor; assay: ATP-induced apoptosis, cell death ELISA of cytoplasmic oligonucleosomal DNA; format: cell-based; conditions: ATP 5 mM 30 min, read after 24 h; compound 10^−9M
Procedure: This assay using mouse monoclonal antibodies directed against DNA and histones respectively, allows the quantitative determination of mono- and oligonucleosomes in the cytoplasmic fraction of cell lysates prepared from macrophages (Li et al. (1997) Toxicol. Appl. Pharmacol. 145:331-339). Alveolar macrophages (1×10^5) were incubated in 200 μl complete medium in 96 wells tissue culture plates with ATP (5 mM) in the presence and absence of HN compounds for 30 minutes and media was replaced with fresh culture media. After 24 h, the plate was centrifuged, the culture supernatants removed and macrophages were lysed in lysis buffer for 30 min on ice and centrifuged at 14,000 rpm for 15 min at 4° C. Cytoplasmic oligonucleosomal DNA was measured in cell supernatants by ELISA.

CCOc1ccc(Nc2ccc(/C(=C3C=C/C(=[N+](/CC)Cc4cccc(S(=O)(=O)[O-])c4)C=C/3C)c3ccc(N(CC)Cc4cccc(S(=O)(=O)[O-])c4)cc3C)cc2)cc1.[Na+] [Brilliant Blue G, reference compound]
ATP-mediated permeabilization to ethidium bromide (P2X7 receptor [1]): blocked | BzATP-mediated permeabilization to ethidium bromide (P2X7 receptor [1]): blocked | BzATP-induced IL-1.beta release (P2X7 receptor [2]; LPS-primed macrophages, BzATP 0.5 mM, BBG 5×10^−9M, FIG. 3A): significantly reduced

N=C(N)NCCC[C@@H](Nc1ccccc1NC(=O)Cc1ccc(O)cc1)C(N)=O [C-12, N-5-guanidinopentanamide-(2R)-yl-2-N-(p-hydroxphenylacetyl) phenylenediamine]
inhibition of ATP-induced pore formation (ethidium bromide uptake) (P2X7 receptor [1]): inhibited significantly | IL-1.beta in peritoneal lavage in response to ATP, various HN compounds (P2X7 receptor [3]): reduced levels

N=C(N)NCCC[C@@H](Nc1ccc(C(=O)c2ccc(Cl)cc2)cc1NC(=O)Cc1ccc(O)cc1)C(N)=O [C-13, N-5-guanidinopentanamide-(2R)-yl-2-N-(p-hydroxyphenylacetyl)-4-(p-chlorobenzoyl)-phenylenediamine]
IL-1.beta in peritoneal lavage in response to ATP, various HN compounds (P2X7 receptor [3]): reduced levels

N=C(N)NCCC[C@H](C(N)=O)n1c(Cc2ccc(O)cc2)nc2cc(C(=O)O)ccc21 [C-15, N-5-guanidinopentanamide-(2R)-yl 2-(p-hydroxylbenzyl)5-carboxybenzimidazole]
inhibition of ATP-induced pore formation, concentration-response (P2X7 receptor [1]; 10^−12 M to 10^−6 M, dose-dependent manner, FIG. 1B): inhibited | inhibition of ATP-induced pore formation (ethidium bromide uptake) (P2X7 receptor [1]): inhibited significantly | inhibition of BzATP-induced pore formation (P2X7 receptor [1]): inhibit | cytoplasmic oligonucleosomal DNA in response to ATP (P2X7 receptor [4]): inhibited | inhibition of extracellular IL-1.beta release, ATP stimulation (P2X7 receptor [2]; LPS 3 h then ATP 5 mM 1 h, compound 10^−9 M, FIG. 3A): significant inhibition | inhibition of extracellular IL-1.beta release, BzATP stimulation (P2X7 receptor [2]; LPS 3 h then BzATP 0.5 mM 1 h, compound 10^−9 M, FIG. 3A): significant inhibition | pIC50 (P2X7 receptor [2]; LPS-primed rat alveolar macrophages, ATP 5 mM, FIG. 3B, read-out: half-maximal response, inhibition of ATP-induced IL-1.beta release): ~10.00 | inhibition of ATP-induced IL-1.beta release, concentration-response (P2X7 receptor [2]; inhibition already seen at 10^−12M, FIG. 3B): dose-dependent | IL-1.beta in peritoneal lavage in response to ATP, various HN compounds (P2X7 receptor [3]): reduced levels

Nc1ncnc2c1ncn2[C@@H](C=O)O[C@@H](C=O)COP(=O)(O)OP(=O)(O)OP(=O)(O)O [oATP, oxidized ATP, reference compound]
ATP-mediated permeabilization to ethidium bromide (P2X7 receptor [1]): blocked | BzATP-mediated permeabilization to ethidium bromide (P2X7 receptor [1]): blocked | ATP-induced IL-1.beta release (P2X7 receptor [2]; LPS-primed macrophages, ATP 5 mM, oATP 100 μM pre-treatment 2 h, FIG. 3A): significantly reduced

Cyclic (-Gly-(p-chloro)Phe-Tyr-D-Arg-) (GFYR; HELM PEPTIDE1{G.[O=C([C@H](Cc1ccc(Cl)cc1)N[*:1])[*:2]].Y.[dR]}$PEPTIDE1,PEPTIDE1,1:R1-4:R2$$$V2.0; SMILES N=C(N)NCCC[C@H]1NC(=O)[C@H](Cc2ccc(O)cc2)NC(=O)[C@H](Cc2ccc(Cl)cc2)NC(=O)CNC1=O) [C-10]
inhibition of ATP-induced pore formation (ethidium bromide uptake) (P2X7 receptor [1]): inhibited significantly | inhibition of BzATP-induced pore formation (P2X7 receptor [1]): inhibit | IL-1.beta in peritoneal lavage in response to ATP, various HN compounds (P2X7 receptor [3]): reduced levels

Cyclic (-Gly-D-Gln-Tyr-D-Arg-) (GQYR; HELM PEPTIDE1{G.[dQ].Y.[dR]}$PEPTIDE1,PEPTIDE1,1:R1-4:R2$$$V2.0; SMILES N=C(N)NCCC[C@H]1NC(=O)[C@H](Cc2ccc(O)cc2)NC(=O)[C@@H](CCC(N)=O)NC(=O)CNC1=O) [C-8]
inhibition of ATP-induced pore formation (ethidium bromide uptake) (P2X7 receptor [1]): inhibited significantly

Cyclic (-Gly-Gln-Tyr-D-Arg-) (GQYR; HELM PEPTIDE1{G.Q.Y.[dR]}$PEPTIDE1,PEPTIDE1,1:R1-4:R2$$$V2.0; SMILES N=C(N)NCCC[C@H]1NC(=O)[C@H](Cc2ccc(O)cc2)NC(=O)[C@H](CCC(N)=O)NC(=O)CNC1=O) [C-7]
inhibition of ATP-induced pore formation (ethidium bromide uptake) (P2X7 receptor [1]): inhibited significantly

H-Gly-Gln-Gly-Arg-Thr-Leu-Tyr-Gly-Phe-COOH (H-GQGRTLYGF-OH) [C-3]
cytoplasmic oligonucleosomal DNA in response to ATP (P2X7 receptor [4]): inhibited

H-Val-Val-Tyr-Ala-Leu-Lys-Arg-Gln-Gly-[S-(3nitro-2-pyridine sulfenyl)]Cys-Thr-Leu-Tyr-Gly-Phe- [C-5]
IL-1.beta in peritoneal lavage in response to ATP, various HN compounds (P2X7 receptor [3]): reduced levels
